Reference: patent publication US5540931A, “Methods for inducing site-specific immunosuppression and compositions of site specific immunosuppressants” (Hewitt; Charles W., priority 1994, dated 1996)

Experiments:
[1] = test system: mixed lymphocyte responses; test: In vitro site-specific mixed lymphocyte response; format: cell-based; settings: FIGS. 14 A and B
[2] = test system: contact hypersensitivity reactions of skin tissue; settings: topical
Source text: Rapamycin (0.01%), cyclosporine (0.1%), and rapamycin-cyclosporine (0.01%/0.1%) combined formulations, were applied in a trinary drug delivery system consisting of 1,2 propanediol, diethylene glycol monoethyl ether, and a glyceryl caprylate/caprate polyethylene glycol complex.
To further elaborate, rapamycin (0.001%), cyclosporine (0.01%), and rapamycin-cyclosporine (0.001%/0.01%) combined formulations, were applied in a trinary drug delivery system consisting of 1,2 propanediol, diethylene glycol monoethyl ether, and a glyceryl caprylate/caprate polyethylene glycol complex (6:3:1).

With CO[C@H]1C[C@@H]2CC[C@@H](C)[C@@](O)(O2)C(=O)C(=O)N2CCCC[C@H]2C(=O)O[C@H]([C@H](C)C[C@@H]2CC[C@@H](O)[C@H](OC)C2)CC(=O)[C@H](C)/C=C(\C)[C@@H](O)[C@@H](OC)C(=O)[C@H](C)C[C@H](C)/C=C/C=C/C=C/1C [Rapamycin, rapamycin] the “site-specific immune suppression of primary or activated cellular immune responses” value ([1]; agent alone) was “provided potent site-specific immune suppression”, the “efficacy by inflammatory immune phase (early versus late)” value ([1]; local application) was “surprisingly efficacious with local application during both late and early inflammatory immune phases” and the “efficacy by local inflammatory immune phase (early versus late)” value ([2]; contact dermatitis model) was “particularly efficacious during the late local inflammatory-immune phase”. The “site-specific immune suppression in contact dermatitis at low concentrations” value ([2]; rapamycin 0.001%, cyclosporine 0.01%, combination 0.001%/0.01%, trinary vehicle (6:3:1)) was “provided surprising site-specific immune suppression” and the “local inflammatory/immune response in contact hypersensitivity” value ([2]; rapamycin 0.01%, cyclosporine 0.1%, combination 0.01%/0.1%, 1,2 propanediol/Transcutol/Labrasol vehicle, FIG. 13B) was “inhibited local inflammatory/immune responses”.
